Data: patent EP3697386B1, “LIQUID COMPOSITIONS FOR PERORAL USE COMPRISING PHOSPHATIDYLGLYCEROL DERIVATIVES AND T[…] TREATING CARDIAC CHANN[…] BY PHARMACOLOGICAL AGENTS” (Signpath Pharma, Inc., priority 2017, dated 2019)

Molecular target: hERG (Homo sapiens, UniProt Q12809)
Test: Whole-cell patch-clamp of IKr hERG tail current: protective effect of lipids against hERG inhibition by Nilotinib
Conditions: for activity at 5 min: human, herg hek293 cells

Sequence of hERG (Q12809 whole entry): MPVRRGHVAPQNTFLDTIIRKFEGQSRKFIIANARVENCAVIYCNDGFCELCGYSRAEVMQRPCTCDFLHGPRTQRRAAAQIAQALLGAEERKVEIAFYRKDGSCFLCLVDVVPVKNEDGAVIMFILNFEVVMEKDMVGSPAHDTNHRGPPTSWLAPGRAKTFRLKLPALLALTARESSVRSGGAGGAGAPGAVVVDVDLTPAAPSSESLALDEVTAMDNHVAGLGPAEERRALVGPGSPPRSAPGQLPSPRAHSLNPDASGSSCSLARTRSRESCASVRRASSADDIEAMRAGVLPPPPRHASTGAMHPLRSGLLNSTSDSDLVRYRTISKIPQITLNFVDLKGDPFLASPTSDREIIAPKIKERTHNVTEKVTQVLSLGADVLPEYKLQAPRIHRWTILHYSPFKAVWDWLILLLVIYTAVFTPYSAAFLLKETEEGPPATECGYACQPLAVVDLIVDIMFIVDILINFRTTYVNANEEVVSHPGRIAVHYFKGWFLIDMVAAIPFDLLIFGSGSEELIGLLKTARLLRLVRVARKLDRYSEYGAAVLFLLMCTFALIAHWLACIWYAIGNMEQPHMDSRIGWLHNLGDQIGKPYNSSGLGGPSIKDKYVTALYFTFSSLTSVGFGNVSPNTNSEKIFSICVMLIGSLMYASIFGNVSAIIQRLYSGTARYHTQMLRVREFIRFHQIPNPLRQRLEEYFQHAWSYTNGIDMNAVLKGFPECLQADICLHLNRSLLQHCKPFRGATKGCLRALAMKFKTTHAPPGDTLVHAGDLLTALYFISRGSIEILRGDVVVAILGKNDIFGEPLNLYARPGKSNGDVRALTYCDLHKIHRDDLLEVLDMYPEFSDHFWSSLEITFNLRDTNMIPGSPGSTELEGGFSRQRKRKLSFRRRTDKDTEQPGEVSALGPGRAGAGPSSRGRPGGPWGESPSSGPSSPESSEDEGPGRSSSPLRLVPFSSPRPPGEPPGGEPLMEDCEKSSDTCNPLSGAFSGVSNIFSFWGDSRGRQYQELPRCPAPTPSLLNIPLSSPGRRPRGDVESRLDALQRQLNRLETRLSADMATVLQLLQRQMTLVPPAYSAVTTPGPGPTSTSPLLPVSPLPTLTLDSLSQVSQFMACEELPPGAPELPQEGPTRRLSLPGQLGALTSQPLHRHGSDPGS

Compound | activity at 5 min | activity at 5 min (Normalized Current Density, lipid alone in aqueous solution, 5 minutes exposure, hERG-transfected HEK 293 cells, tail current at -55 mV, baseline = 1.000) | Normalized Current Density (lipid alone in aqueous solution, 5 minutes exposure, hERG-transfected HEK 293 cells, tail current at -55 mV, baseline = 1.000)
CCCCCCCCCCCCCC(=O)OC[C@H](COP(=O)([O-])OCC[N+](C)(C)C)OC(=O)CCCCCCCCCCCCC [DMPC, 1,2-dimyristoyl-sn-glycero-3-phosphocholine] | 106% | 86.3% | –
12-Mysteroyl-2-Hydroxy-sn-Glycero-3-[Phospho-rac-(glycerol)] [DMPG] | – | – | 0.800
